pIC50: −log10 of the molar value.
Legend:
[1] = tested on: KRAS G12D mutated AGS human gastric adenocarcinoma cells; assay: Proliferation inhibition of KRAS G12D mutant AGS cells (CellTiter-Glo, 3 days; IC50 and single-point inhibition rate at 1 μM); format: cell-based; details: 72 h, 3 days incubation, max concentration 10 μM
Procedure: This experiment assessed and validated the proliferation inhibitory activity of some compounds of the present invention against KRAS G12D mutant AGS cells.
Incubate at 37° C., 5% CO2, 95% humidity.
The following materials, instruments, and reagents were used in this experiment: Fetal Bovine Serum FBS (GIBCO, Cat #10099-141); CellTiter-Glo® Luminescent Cell Viability Assay (Promega, Cat #G7572); 96-well clear flat-bottom black-wall plate (Corning®, Cat #3603); SpectraMax multimode microplate reader (MD, 2104-0010A); CO2 Incubator (Thermo Scientific, Model 3100 Series); Biosafety cabinet (Thermo Scientific, Model 1300 Series A2); Inverted microscope (Olympus, CKX41SF); AGS cell line was purchased from Nanjing Kebai Biotechnology Co., Ltd., under the lot number CBP60476.
Cell culture and inoculation: The cells in the logarithmic growth phase were harvested, and cell counting was performed using a platelet counter. The cell viability was detected by Trypan Blue exclusion method to ensure that the cell viability was above 90%. The cell concentration was adjusted. Then, 90 μL of the cell suspension was added to each well of a 96-well plate respectively, and the cells in the 96-well plate were cultured at 37° C. and 5% CO2.
Drug dilution and addition: a) For the preparation of drugs for single-point inhibition rate determination: A 10-fold concentrated drug solution was prepared. 10 μL of the drug solution was added to each well of the 96-well plate inoculated with cells to make the working concentration 1 μM, and three replicate wells were set for each drug concentration; b) For the preparation of drugs for IC50 determination: A 10-fold concentrated drug solution was prepared. 10 μL of the drug solution was added to each well of the 96-well plate inoculated with cells to make the maximum working concentration 10 μM, with a 3.16× dilution and a total of 9 concentrations. Three replicate wells were set for each drug concentration. The cells in the 96-well plate with the added drugs were incubated at 37° C. and 5% CO2 for another 3 days, and then the CTG assay was performed.
The CTG reagent was thawed, and the cell plate was equilibrated to room temperature for 30 minutes. An equal volume of CTG solution was added to each well, and the plate was shaken on an orbital shaker for 5 minutes to lyse the cells. The cell plate was placed at room temperature for 20 minutes to stabilize the luminescence signal, and then the luminescence value was read.
The data were analyzed using GraphPad Prism 7.0 software. The data were fitted by nonlinear S-curve regression to obtain the dose-response curve, and the IC50 value was calculated accordingly.

[2] = tested on: KRAS G12D mutated AGS human gastric adenocarcinoma cells; assay: Proliferation inhibition of KRAS G12D mutant AGS cells, another experiment with similar protocol (includes MRTX1133); format: cell-based; details: Homo sapiens
Procedure: In another experiment, using a protocol similar to the one described above, the inhibitory activity of some representative compounds of the present invention against KRAS G12D mutated AGS human gastric adenocarcinoma cells was determined.
The synthesis of compound MRTX1133 was performed according to the method described in J. Med. Chem. 2022, 65, 4, 3123-3133.

[3] = Mouse pharmacokinetics (IV and PO); format: in vivo; details: 10 mg/kg, male CD-1 mice, PO (gavage), 1 mg/mL at 10 mL/kg, plasma
Procedure: The pharmacokinetic properties of the compounds of the present invention were evaluated through a mouse pharmacokinetic experiment.
Male CD-1 mice, aged 6-8 weeks old, were purchased from Zhejiang Vital River Laboratory Animal Co., Ltd.
IV administration group: The compound was formulated into a sodium acetate buffer solution (10 mM sodium acetate solution, adjusted to pH 4.0 with acetic acid) containing 20% Captisol (sulfobutyl β-cyclodextrin) so that the final concentration of each compound was 0.6 mg/mL. The drug formulation was injected into the tail vein of CD-1 mice at an injection volume of 5 mL/kg. After administration, blood samples were collected from the submandibular vein or by other appropriate methods at 5 min, 15 min, 30 min, 1 h, 2 h, 4 h, 6 h, 8 h, and 24 h. The blood samples were centrifuged at a low temperature for 6 minutes, and the plasma was collected and stored at −80° C. for testing. The PO administration group formulated the compound into a solvent of 0.5% Tween 80+99.5% (0.5% MC (400 cp)) or 5% DMSO+95% (0.5% MC (400 cp)) so that the final concentration of each compound was 1 mg/mL. The drug formulation was administered to CD-1 mice by gavage at a volume of 10 mL/kg. After administration, blood samples were collected from the submandibular vein or by other appropriate methods at 15 min, 30 min, 1 h, 2 h, 4 h, 6 h, 8 h, and 24 h. The blood samples were centrifuged at a low temperature for 6 minutes, and the plasma was collected and stored at −80° C. for testing.
10 μL of the plasma sample was taken, and 200 μL of methanol containing an internal standard was added as a precipitating agent to precipitate plasma proteins and extract the compounds to be tested in the plasma. After centrifugation at a low temperature, 10 μL of the supernatant was injected, and the drug blood concentration was analyzed by LC-MS/MS. The pharmacokinetic parameters were calculated using Winnonlin based on the drug concentration data at different time points.

| SMILES | pIC50 [1] | pIC50 [2] | also measured |
| --- | --- | --- | --- |
| C#Cc1c(F)ccc2cc(O)cc(-c3c(F)cc4c(N5CC6CCC(C5)N6)nc(OCC5(C)CN(C)CCC5OC)nc4c3F)c12 (atropisomer, axis not shown; (Ra)) [Example 5, (Ra)-4-(4-(((1R,5S)-3,8-diazabicyclo[3.2.1]octan-3-yl)-6,8-difluoro-2-(4-methoxy-1,3-dimethylpiperidin-3-yl)methoxy)quinazolin-7-yl)-5-ethynyl-6-fluoronaphthalen-2-ol·diformate] | 6.76 |  |  |
| C#Cc1c(F)ccc2cc(O)cc(-c3c(F)cc4c(N5CC6CCC(C5)N6)nc(OCC5(C)CCCN(CCF)C5)nc4c3F)c12 (atropisomer, axis not shown; (Ra)) [Example 4, (Ra)-4-(4-((1R,5S)-3,8-diazabicyclo[3.2.1]octan-3-yl)-6,8-difluoro-2-(1-(2-fluoroethyl)-3-methylpiperidin-3-yl)methoxy)quinazolin-7-yl)-5-ethynyl-6-fluoronaphthalen-2-ol·diformate] | 7.06 |  |  |
| C#Cc1c(F)ccc2cc(O)cc(-c3c(F)cc4c(N5CC6CCC(C5)N6)nc(OCC5(C)CN(C)CCC5(F)F)nc4c3F)c12 (atropisomer, axis not shown; (Ra)) [Example 6, (Ra)-4-(4-((1R,5S)-3,8-diazabicyclo[3.2.1]octan-3-yl)-2-((4,4-difluoro-1,3-dimethylpiperidin-3-yl)methoxy)-6,8-difluoroquinazolin-7-yl)-5-ethynyl-6-fluoronaphthalen-2-ol] | 7.26 |  |  |
| C#Cc1c(F)ccc2cc(O)cc(-c3c(F)cc4c(N5CC6CCC(C5)N6)nc(OCC5(C)CCCN(C)C5)nc4c3F)c12 (atropisomer, axis not shown; (Ra)) [Example 2, (Ra)-4-(4-((1R,5S)-3,8-diazabicyclo[3.2.1]octan-3-yl)-2-((1,3-dimethylpiperidin-3-yl)methoxy)-6,8-difluoroquinazolin-7-yl)-5-ethynyl-6-fluoronaphthalen-2-ol·dicarboxylate] | 7.30 |  |  |
| C#Cc1c(F)ccc2cc(O)cc(-c3c(F)cc4c(N5CC6CCC(C5)N6)nc(OCC5COCCN(C)C5)nc4c3F)c12 (stereo not drawn) [Example 7] | 6.11 |  |  |
| C#Cc1c(F)ccc2cc(O)cc(-c3c(F)cc4c(N5CC6CCC(C5)N6)nc(OCC5(C)CCCN(CCOC)C5)nc4c3F)c12 (atropisomer, axis not shown; (Ra)) [Example 3, (Ra)-4-(4-((1R,5S)-3,8-diazabicyclo[3.2.1]octan-3-yl)-6,8-difluoro-2-(1-(2-methoxyethyl)-3-methylpiperidin-3-yl)methoxy)quinazolin-7-yl)-5-ethynyl-6-fluoronaphthalen-2-ol·formate] | 6.80 |  |  |
| C#Cc1c(F)ccc2cc(O)cc(-c3c(F)cc4c(N5CC6CCC(C5)N6)nc(OCC5(F)CCCN(C)C5)nc4c3F)c12 (atropisomer, axis not shown; (Ra)) [Example 1, (Ra)-4-(4-((1R,5S)-3,8-diazabicyclo[3.2.1]octan-3-yl)-6,8-difluoro-2-(3-fluoro-1-methylpiperidin-3-yl)methoxy)quinazolin-7-yl)-5-ethynyl-6-fluoronaphthalen-2-ol·diformate] | 7.03 |  |  |
| [2H]C([2H])([2H])N1CC/C(=C\F)[C@](C)(C([2H])([2H])Oc2nc(N3C[C@H]4CC[C@@H](C3)N4)c3cnc(-c4cc(O)cc5ccc(F)c(C#C)c45)c(F)c3n2)C1 [Example 304, 4-(4-((1R,5S)-3,8-diazabicyclo[3.2.1]octan-3-yl)-8-fluoro-2-(((S,E)-4-(fluoromethylene)-3-methyl-1-(methyl-d3)piperidin-3-yl)methoxy-d2)pyrido[4,3-d]pyrimidin-7-yl)-5-ethynyl-6-fluoronaphthalen-2-ol] |  | 8.70 | AUC(0-inf) [3]: 1500 ng·h/mL; AUC(0-t) [3]: 1420 ng·h/mL; half-life [3]: 8.74 h |
| C#Cc1c(F)ccc2cc(O)cc(-c3c(F)cc4c(N5CC6CCC(C5)N6)nc(OCC5(C)CCCCN(CCOC)C5)nc4c3F)c12 [Example 8, 4-(4-((1R,5S)-3,8-diazabicyclo[3.2.1]octane-3-yl)-6,8-difluoro-2-((1-(2-methoxyethyl)-3-methylazepan-3-yl)methoxy)quinazolin-7-yl)-5-ethynyl-6-fluoronaphthalen-2-ol·triformate] | 6.60 |  |  |
| C#Cc1c(F)ccc2cc(O)cc(-c3c(F)cc4c(N5CC6CCC(C5)N6)nc(OCC56CC5CCN(C)C6)nc4c3F)c12 (atropisomer, axis not shown; (Ra)) [Example 9, (Ra)-4-(4-((1R,5S)-3,8-diazabicyclo[3.2.1]octan-3-yl)-6,8-difluoro-2-((3-methyl-3-azabicyclo[4.1.0]heptan-1-yl)methoxy)quinazolin-7-yl)-5-ethynyl-6-fluoronaphthalen-2-ol·diformate] | 6.46 |  |  |
| CN1CC/C(=C\F)[C@](C)(COc2nc(N3CC4CCC(C3)N4)c3cc(Cl)c(-c4cccc5sc(N)c(C#N)c45)c(F)c3n2)C1 (single isomer, unassigned) [Example 313-2] |  | 7.77 |  |
| Cc1cc(N)c(C#N)c(-c2c(F)cc3c(N4C[C@H]5CC[C@@H](C4)N5)nc(OC[C@]4(C)CN(C)CC[C@@H]4CF)nc3c2F)c1C(F)(F)F (single isomer, unassigned) [Example 85-2] |  | 7.42 |  |
| CN1CC[C@H](C(F)F)[C@](C)(COc2nc(N3C[C@H]4CC[C@@H](C3)N4)c3cc(F)c(-c4cccc5sc(N)c(C#N)c45)c(F)c3n2)C1 [Example 190, 4-(4-((1R,5S)-3,8-diazabicyclo[3.2.1]octan-3-yl)-2-(((3S,4S)-4-(difluoromethyl)-1,3-dimethylpiperidin-3-yl)methoxy)-6,8-difluoroquinazolin-7-yl)-2-aminobenzo[b]thiophene-3-nitrile] |  | 7.33 |  |
| C#Cc1c(F)ccc2cc(O)cc(-c3c(F)cc4c(N5C[C@H]6CC[C@@H](C5)N6)nc(OC[C@]5(C)CN(C)CCC56CC6)nc4c3F)c12 [Example 88, 4-(4-((1R,5S)-3,8-diazabicyclo[3.2.1]octan-3-yl)-2-(((S)-4,6-dimethyl-6-azaspiro[2.5]octan-4-yl)methoxy)-6,8-difluoroquinazolin-7-yl)-5-ethynyl-6-fluoronaphthalen-2-ol] |  | 7.77 |  |
| C#Cc1c(F)ccc2cc(O)cc(-c3c(F)cc4c(N5CC6CCC(C5)N6)nc(OC[C@]5(C)CN(C6CC6)CCC5(F)F)nc4c3F)c12 (atropisomer, axis not shown; (Ra)) [Example 49, (Ra)-4-(4-((1R,5S)-3,8-diazabicyclo[3.2.1]octan-3-yl)-2-(((S)-1-cycloprop-yl-4,4-difluoro-3-methylpiperi-din-3-yl)methoxy)-6,8-difluoroquinazolin-7-yl)-5-ethynyl-6-fluoronaph-thalen-2-ol] |  | 6.41 |  |

— patent US20260176284A1, “Compounds with Anti-KRAS Mutated Tumor Activity” (Trasveda Ltd., priority 2022, published 2026)
